Results taken from PubChem BioAssay AID248 (DTP/NCI, 2004).
Values joined by “and” are separate entries in the source; they are usually repeats but may differ in a detail not shown here. Equal entries are not always repeated. Inconclusive results and toxic doses are left out.

Test system: L1210 leukemia ip in BDF1 mice, survival T/C
Assay: NCI In Vivo Anticancer Drug Screen. Data for tumor model L1210 Leukemia (intraperitoneal) in B6D2F1 (BDF1) mice
Details: endpoint: mean survival time, higher = longer survival
In short: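 Ratio derived from survival: compound-dosed mice over vehicle-dosed mice, all bearing a transplantable tumor.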

SMILES: COC(C(=O)C(O)C(C)O)C1Cc2cc3cc(OC4CC(OC(C)=O)C(OC5CC(O)C(OC)C(C)O5)C(C)O4)cc(O)c3c(O)c2C(=O)C1OC1CC(OC2CC(OC3CC(C)(O)C(OC(=O)C(C)C)C(C)O3)C(O)C(C)O2)C(O)C(C)O1 (stereo not drawn)
- T/C (dose: 0.09 mg/kg/injection, schedule: Q01DX017 (ip), vehicle: carboxymethylcellulose (CMC)): 97 % of control
- T/C (dose: 0.18 mg/kg/injection, schedule: Q01DX017 (ip), vehicle: carboxymethylcellulose (CMC)): 109 % of control
- T/C (dose: 0.18 mg/kg/injection, schedule: Q## X005 (ip), vehicle: carboxymethylcellulose (CMC)): 98 % of control
- T/C (dose: 0.2 mg/kg/injection, schedule: Q01DX015 (ip), vehicle: carboxymethylcellulose (CMC)): 102 % of control
- T/C (dose: 0.24 mg/kg/injection, schedule: Q## X024 (ip), vehicle: carboxymethylcellulose (CMC)): 92 % of control
- T/C (dose: 0.25 mg/kg/injection, schedule: Q01DX009 (ip), vehicle: other): 103 % of control
- T/C (dose: 0.25 mg/kg/injection, schedule: Q## X003 (ip), vehicle: carboxymethylcellulose (CMC)): 94 % of control
- T/C (dose: 0.25 mg/kg/injection, schedule: Q#A X034 (ip), vehicle: carboxymethylcellulose (CMC)): 119 % of control
- T/C (dose: 0.37 mg/kg/injection, schedule: Q01DX001 (ip), vehicle: carboxymethylcellulose (CMC)): 101 % of control
- T/C (dose: 0.37 mg/kg/injection, schedule: Q01DX010 (ip), vehicle: saline): 116 % of control
- T/C (dose: 0.37 mg/kg/injection, schedule: Q02DX005 (ip), vehicle: saline): 101 % of control
- T/C (dose: 0.37 mg/kg/injection, schedule: Q02DX009 (ip), vehicle: carboxymethylcellulose (CMC)): 121 % of control
- T/C (dose: 0.37 mg/kg/injection, schedule: Q## X003 (ip), vehicle: saline): 98 % of control
- T/C (dose: 0.37 mg/kg/injection, schedule: Q## X005 (ip), vehicle: carboxymethylcellulose (CMC)): 107 % of control
- T/C (dose: 0.4 mg/kg/injection, schedule: Q01DX015 (ip), vehicle: carboxymethylcellulose (CMC)): 120 % of control
- T/C (dose: 0.48 mg/kg/injection, schedule: Q## X024 (ip), vehicle: carboxymethylcellulose (CMC)): 89 % of control
- T/C (dose: 0.5 mg/kg/injection, schedule: Q01DX001 (ip), vehicle: saline): 103 % of control
- T/C (dose: 0.5 mg/kg/injection, schedule: Q01DX005 (ip), vehicle: carboxymethylcellulose (CMC)): 106 % of control
- T/C (dose: 0.5 mg/kg/injection, schedule: Q01DX006 (iv), vehicle: carboxymethylcellulose (CMC)): 104 % of control
- T/C (dose: 0.5 mg/kg/injection, schedule: Q01DX009 (ip), vehicle: carboxymethylcellulose (CMC)): 113 % of control
- T/C (dose: 0.5 mg/kg/injection, schedule: Q01DX009 (ip), vehicle: other): 122 % of control
- T/C (dose: 0.5 mg/kg/injection, schedule: Q01DX015 (im), vehicle: carboxymethylcellulose (CMC)): 97 % of control
- T/C (dose: 0.5 mg/kg/injection, schedule: Q01DX015 (sc), vehicle: carboxymethylcellulose (CMC)): 95 % of control
- T/C (dose: 0.5 mg/kg/injection, schedule: Q01DX Z (ip), vehicle: saline): 123 % of control
- T/C (dose: 0.5 mg/kg/injection, schedule: Q## X003 (ip), vehicle: carboxymethylcellulose (CMC)): 93 % of control
- T/C (dose: 0.75 mg/kg/injection, schedule: Q01DX001 (ip), vehicle: carboxymethylcellulose (CMC)): 106 % of control
- T/C (dose: 0.75 mg/kg/injection, schedule: Q02DX005 (ip), vehicle: saline): 116 % of control
- T/C (dose: 0.75 mg/kg/injection, schedule: Q## X003 (ip), vehicle: saline): 105 % of control
- T/C (dose: 0.75 mg/kg/injection, schedule: Q## X005 (ip), vehicle: carboxymethylcellulose (CMC)): 117 % of control
- T/C (dose: 1.0 mg/kg/injection, schedule: Q01DX001 (ip), vehicle: other): 94 % of control
- T/C (dose: 1.0 mg/kg/injection, schedule: Q01DX001 (ip), vehicle: saline): 114 % of control and 115 % of control
- T/C (dose: 1.0 mg/kg/injection, schedule: Q01DX005 (ip), vehicle: carboxymethylcellulose (CMC)): 110 % of control
- T/C (dose: 1.0 mg/kg/injection, schedule: Q01DX006 (iv), vehicle: carboxymethylcellulose (CMC)): 96 % of control
- T/C (dose: 1.0 mg/kg/injection, schedule: Q01DX009 (ip), vehicle: carboxymethylcellulose (CMC)): 116 % of control
- T/C (dose: 1.0 mg/kg/injection, schedule: Q01DX009 (ip), vehicle: other): 114 % of control
- T/C (dose: 1.0 mg/kg/injection, schedule: Q01DX015 (im), vehicle: carboxymethylcellulose (CMC)): 101 % of control
- T/C (dose: 1.0 mg/kg/injection, schedule: Q01DX015 (sc), vehicle: carboxymethylcellulose (CMC)): 105 % of control
- T/C (dose: 1.0 mg/kg/injection, schedule: Q01DX017 (ip), vehicle: carboxymethylcellulose (CMC)): 163 % of control
- T/C (dose: 1.0 mg/kg/injection, schedule: Q01DX Z (ip), vehicle: saline): 115 % of control
- T/C (dose: 1.0 mg/kg/injection, schedule: Q02DX009 (ip), vehicle: carboxymethylcellulose (CMC)): 154 % of control
- T/C (dose: 1.0 mg/kg/injection, schedule: Q## X002 (ip), vehicle: carboxymethylcellulose (CMC)): 88 % of control
- T/C (dose: 1.0 mg/kg/injection, schedule: Q## X003 (ip), vehicle: carboxymethylcellulose (CMC)): 95 % of control
- T/C (dose: 1.0 mg/kg/injection, schedule: Q## X008 (ip), vehicle: carboxymethylcellulose (CMC)): 88 % of control
- T/C (dose: 1.0 mg/kg/injection, schedule: Q## X024 (ip), vehicle: carboxymethylcellulose (CMC)): 93 % of control
- T/C (dose: 1.0 mg/kg/injection, schedule: Q#A X034 (ip), vehicle: carboxymethylcellulose (CMC)): 170 % of control
- T/C (dose: 1.5 mg/kg/injection, schedule: Q01DX001 (ip), vehicle: carboxymethylcellulose (CMC)): 117 % of control
- T/C (dose: 1.5 mg/kg/injection, schedule: Q01DX001 (ip), vehicle: saline): 114 % of control
- T/C (dose: 1.5 mg/kg/injection, schedule: Q01DX013 (ip), vehicle: saline): 124 % of control
- T/C (dose: 1.5 mg/kg/injection, schedule: Q02DX005 (ip), vehicle: saline): 122 % of control
- T/C (dose: 1.5 mg/kg/injection, schedule: Q02DX009 (ip), vehicle: carboxymethylcellulose (CMC)): 162 % of control
- T/C (dose: 1.6 mg/kg/injection, schedule: Q01DX013 (ip), vehicle: saline): 163 % of control
- T/C (dose: 2.0 mg/kg/injection, schedule: Q01DX001 (ip), vehicle: other): 108 % of control
- T/C (dose: 2.0 mg/kg/injection, schedule: Q01DX001 (ip), vehicle: saline): 116 % of control and 123 % of control
- T/C (dose: 2.0 mg/kg/injection, schedule: Q01DX005 (ip), vehicle: carboxymethylcellulose (CMC)): 123 % of control
- T/C (dose: 2.0 mg/kg/injection, schedule: Q01DX006 (iv), vehicle: carboxymethylcellulose (CMC)): 121 % of control
- T/C (dose: 2.0 mg/kg/injection, schedule: Q01DX009 (ip), vehicle: other): 177 % of control
- T/C (dose: 2.0 mg/kg/injection, schedule: Q01DX009 (ip), vehicle: saline): 166 % of control
- T/C (dose: 2.0 mg/kg/injection, schedule: Q01DX015 (im), vehicle: carboxymethylcellulose (CMC)): 121 % of control
- T/C (dose: 2.0 mg/kg/injection, schedule: Q01DX015 (ip), vehicle: carboxymethylcellulose (CMC)): 195 % of control
- T/C (dose: 2.0 mg/kg/injection, schedule: Q01DX015 (oral), vehicle: carboxymethylcellulose (CMC)): 101 % of control
- T/C (dose: 2.0 mg/kg/injection, schedule: Q01DX015 (sc), vehicle: carboxymethylcellulose (CMC)): 114 % of control
- T/C (dose: 2.0 mg/kg/injection, schedule: Q01DX017 (ip), vehicle: carboxymethylcellulose (CMC)): 184 % of control
- T/C (dose: 2.0 mg/kg/injection, schedule: Q01DX Z (ip), vehicle: saline): 106 % of control
- T/C (dose: 2.0 mg/kg/injection, schedule: Q02DX009 (ip), vehicle: carboxymethylcellulose (CMC)): 192 % of control
- T/C (dose: 2.0 mg/kg/injection, schedule: Q## X002 (ip), vehicle: carboxymethylcellulose (CMC)): 100 % of control
- T/C (dose: 2.0 mg/kg/injection, schedule: Q## X003 (ip), vehicle: carboxymethylcellulose (CMC)): 113 % of control
- T/C (dose: 2.0 mg/kg/injection, schedule: Q## X005 (ip), vehicle: carboxymethylcellulose (CMC)): 150 % of control
- T/C (dose: 2.0 mg/kg/injection, schedule: Q## X008 (ip), vehicle: carboxymethylcellulose (CMC)): 97 % of control
- T/C (dose: 2.0 mg/kg/injection, schedule: Q## X016 (ip), vehicle: carboxymethylcellulose (CMC)): 97 % of control
- T/C (dose: 2.0 mg/kg/injection, schedule: Q## X024 (ip), vehicle: carboxymethylcellulose (CMC)): 103 % of control
- T/C (dose: 3.0 mg/kg/injection, schedule: Q01DX001 (ip), vehicle: carboxymethylcellulose (CMC)): 115 % of control
- T/C (dose: 3.0 mg/kg/injection, schedule: Q01DX001 (ip), vehicle: saline): 118 % of control
- T/C (dose: 3.0 mg/kg/injection, schedule: Q02DX009 (ip), vehicle: carboxymethylcellulose (CMC)): 151 % of control
- T/C (dose: 3.0 mg/kg/injection, schedule: Q## X005 (ip), vehicle: carboxymethylcellulose (CMC)): 152 % of control
- T/C (dose: 3.2 mg/kg/injection, schedule: Q01DX015 (ip), vehicle: carboxymethylcellulose (CMC)): 163 % of control
- T/C (dose: 4.0 mg/kg/injection, schedule: Q01DX001 (ip), vehicle: other): 97 % of control
- T/C (dose: 4.0 mg/kg/injection, schedule: Q01DX001 (ip), vehicle: saline): 104 % of control
- T/C (dose: 4.0 mg/kg/injection, schedule: Q01DX006 (iv), vehicle: carboxymethylcellulose (CMC)): 122 % of control
- T/C (dose: 4.0 mg/kg/injection, schedule: Q01DX009 (ip), vehicle: carboxymethylcellulose (CMC)): 114 % of control
- T/C (dose: 4.0 mg/kg/injection, schedule: Q01DX009 (ip), vehicle: other): 101 % of control
- T/C (dose: 4.0 mg/kg/injection, schedule: Q01DX015 (im), vehicle: carboxymethylcellulose (CMC)): 94 % of control
- T/C (dose: 4.0 mg/kg/injection, schedule: Q01DX015 (oral), vehicle: carboxymethylcellulose (CMC)): 104 % of control
- T/C (dose: 4.0 mg/kg/injection, schedule: Q01DX015 (sc), vehicle: carboxymethylcellulose (CMC)): 115 % of control
- T/C (dose: 4.0 mg/kg/injection, schedule: Q02DX009 (ip), vehicle: carboxymethylcellulose (CMC)): 259 % of control
- T/C (dose: 4.0 mg/kg/injection, schedule: Q## X002 (ip), vehicle: carboxymethylcellulose (CMC)): 106 % of control
- T/C (dose: 4.0 mg/kg/injection, schedule: Q## X005 (ip), vehicle: carboxymethylcellulose (CMC)): 170 % of control
- T/C (dose: 4.0 mg/kg/injection, schedule: Q## X008 (ip), vehicle: carboxymethylcellulose (CMC)): 104 % of control
- T/C (dose: 4.0 mg/kg/injection, schedule: Q## X016 (ip), vehicle: carboxymethylcellulose (CMC)): 97 % of control
- T/C (dose: 6.0 mg/kg/injection, schedule: Q02DX009 (ip), vehicle: carboxymethylcellulose (CMC)): 113 % of control
- T/C (dose: 8.0 mg/kg/injection, schedule: Q01DX001 (ip), vehicle: carboxymethylcellulose (CMC)): 98 % of control
- T/C (dose: 8.0 mg/kg/injection, schedule: Q01DX001 (ip), vehicle: other): 101 % of control
- T/C (dose: 8.0 mg/kg/injection, schedule: Q01DX015 (oral), vehicle: carboxymethylcellulose (CMC)): 97 % of control
- T/C (dose: 8.0 mg/kg/injection, schedule: Q## X002 (ip), vehicle: carboxymethylcellulose (CMC)): 116 % of control
- T/C (dose: 16.0 mg/kg/injection, schedule: Q01DX015 (oral), vehicle: carboxymethylcellulose (CMC)): 101 % of control
- T/C (dose: 32.0 mg/kg/injection, schedule: Q01DX015 (oral), vehicle: carboxymethylcellulose (CMC)): 109 % of control
- T/C (dose: 62.5 micrograms/kg/injection, schedule: Q01DX Z (ip), vehicle: saline): 108 % of control
- T/C (dose: 125.0 micrograms/kg/injection, schedule: Q01DX Z (ip), vehicle: saline): 109 % of control
- T/C (dose: 250.0 micrograms/kg/injection, schedule: Q01DX Z (ip), vehicle: saline): 114 % of control
